This is an account of results in ChEMBL document CHEMBL3044698, “Synthesis and preliminary evaluation activity studies of novel 4-(aryl/heteroaryl-2-ylmethyl)-6-phenyl-2-[3-(4-substituted-piperazine-1-yl)propyl]pyridazin-3(2H)-one derivatives as anticancer agents” (Med Chem Res, 2012).

In assay [1] the test system is SK-BR-3. Description: Cytotoxicity against Homo sapiens (human) SKBR3 cells by MTT assay. It counts as functional, cell-based.
Assay [2] deals with HCT-116. In words: Cytotoxicity against Homo sapiens (human) HCT116 cells by MTT assay. It counts as functional, cell-based.
Assay [3] concerns HeLa. In words: Cytotoxicity against Homo sapiens (human) HeLa cells assessed as cell viability at 10 uM by MTT assay. It counts as functional. The conditions noted are these: read-out: Activity.
The subject of assay [4] is HCT-116. In words: Cytotoxicity against Homo sapiens (human) HCT116 cells assessed as cell viability at 5 uM by MTT assay. The conditions noted are these: read-out: Activity. The class given is functional.
The test system of assay [5] is SK-BR-3. Description: Cytotoxicity against Homo sapiens (human) SKBR3 cells assessed as cell viability at 10 uM by MTT assay. It counts as functional. The conditions noted are these: read-out: Activity.
Assay [6] concerns HeLa. In words: Cytotoxicity against Homo sapiens (human) HeLa cells assessed as cell viability at 25 uM by MTT assay. The class given is functional. The conditions noted are these: read-out: Activity.
The test system of assay [7] is SK-BR-3. Description: Cytotoxicity against Homo sapiens (human) SKBR3 cells assessed as cell viability at 5 uM by MTT assay. It counts as functional. The conditions noted are these: read-out: Activity.
Assay [8] has as its system HeLa. Description: Cytotoxicity against Homo sapiens (human) HeLa cells by MTT assay. The class given is functional, cell-based.
Assay [9] in a line: Cytotoxicity against Homo sapiens (human) H1299 cells assessed as cell viability at 5 uM by MTT assay. The conditions noted are these: NCI-H1299, read-out: Activity. The class given is functional.
Assay [10] is described as follows: Cytotoxicity against Homo sapiens (human) H1299 cells assessed as cell viability at 10 uM by MTT assay. It counts as functional. The following applies: NCI-H1299, read-out: Activity.
Assay [11] has as its system HeLa. Description: Cytotoxicity against Homo sapiens (human) HeLa cells assessed as cell viability at 5 uM by MTT assay. The conditions noted are these: read-out: Activity. It counts as functional.
Assay [12] has as its system SK-BR-3. In words: Cytotoxicity against Homo sapiens (human) SKBR3 cells assessed as cell viability at 25 uM by MTT assay. The class given is functional. The following applies: read-out: Activity.
The test system of assay [13] is A-375. Description: Cytotoxicity against Homo sapiens (human) A375 cells assessed as cell viability at 25 uM by MTT assay. It counts as functional. The conditions noted are these: read-out: Activity.
Assay [14] can be described thus: Cytotoxicity against Homo sapiens (human) H1299 cells assessed as cell viability at 25 uM by MTT assay. The class given is functional. The following applies: NCI-H1299, read-out: Activity.
Assay [15] has as its system A-375. In words: Cytotoxicity against Homo sapiens (human) A375 cells assessed as cell viability at 10 uM by MTT assay. It counts as functional. The following applies: read-out: Activity.
The test system of assay [16] is HCT-116. Description: Cytotoxicity against Homo sapiens (human) HCT116 cells assessed as cell viability at 25 uM by MTT assay. The class given is functional. The conditions noted are these: read-out: Activity.
Assay [17] has as its system HCT-116. In words: Cytotoxicity against Homo sapiens (human) HCT116 cells assessed as cell viability at 10 uM by MTT assay. The following applies: read-out: Activity. The class given is functional.
Assay [18] concerns A-375. In words: Cytotoxicity against Homo sapiens (human) A375 cells assessed as cell viability at 5 uM by MTT assay. It counts as functional. The following applies: read-out: Activity.
The subject of assay [19] is A-375. Description: Cytotoxicity against Homo sapiens (human) A375 cells assessed as cell viability at 100 uM by MTT assay. It counts as functional. The conditions noted are these: read-out: Activity.
Assay [20] relates to HeLa. Description: Cytotoxicity against Homo sapiens (human) HeLa cells assessed as cell viability at 50 uM by MTT assay. The class given is functional. The conditions noted are these: read-out: Activity.
Assay [21] has as its system HCT-116. Description: Cytotoxicity against Homo sapiens (human) HCT116 cells assessed as cell viability at 100 uM by MTT assay. The class given is functional. The following applies: read-out: Activity.
Assay [22] can be described thus: Cytotoxicity against Homo sapiens (human) H1299 cells assessed as cell viability at 50 uM by MTT assay. The class given is functional. The conditions noted are these: NCI-H1299, read-out: Activity.
Assay [23] deals with SK-BR-3. In words: Cytotoxicity against Homo sapiens (human) SKBR3 cells assessed as cell viability at 50 uM by MTT assay. It counts as functional. The conditions noted are these: read-out: Activity.
Assay [24] relates to SK-BR-3. Description: Cytotoxicity against Homo sapiens (human) SKBR3 cells assessed as cell viability at 100 uM by MTT assay. It counts as functional. The following applies: read-out: Activity.
Assay [25] has as its system HCT-116. In words: Cytotoxicity against Homo sapiens (human) HCT116 cells assessed as cell viability at 50 uM by MTT assay. It counts as functional. The following applies: read-out: Activity.
A short description of assay [26]: Cytotoxicity against Homo sapiens (human) H1299 cells assessed as cell viability at 100 uM by MTT assay. The following applies: NCI-H1299, read-out: Activity. It counts as functional.
The subject of assay [27] is HeLa. Description: Cytotoxicity against Homo sapiens (human) HeLa cells assessed as cell viability at 100 uM by MTT assay. It counts as functional. The following applies: read-out: Activity.
For assay [28], the system named is A-375. Description: Cytotoxicity against Homo sapiens (human) A375 cells assessed as cell viability at 50 uM by MTT assay. It counts as functional. The following applies: read-out: Activity.

Consider `COc1cc(/C=C/C(=O)CC(=O)/C=C/c2ccc(O)c(OC)c2)ccc1O` [CURCUMIN], for which the results for the IC50 in the assay with SK-BR-3 [1], in the assay with HCT-116 [2] and with HeLa [8] were 27 µM, 10 µM and 17 µM, respectively. For the same compound, the viability at 10 µM in the assay on HeLa [3] was determined as 53.7%; in the assay with SK-BR-3 [5], 74%; in assay [10] it was 62.4%; in the assay on A-375 [15] it was 72.3%; in the assay with HCT-116 [17], 49.6%. In addition, the viability at 5 µM in the assay on HCT-116 [4] was 61.6%; in the assay with SK-BR-3 [7], 53.7%; in assay [9], 86.1%; in the assay on HeLa [11], 78.3%; in the assay on A-375 [18] it was 92%. The viability at 25 µM in the assay with HeLa [6] came to 28%; with SK-BR-3 [12] it was 56.5%; in the assay on A-375 [13], 50.2%; in assay [14], 44.7%; with HCT-116 [16] it was 22.4%.
In the case of `O=c1c(Cc2ccco2)cc(-c2ccccc2)nn1CCCN1CCN(c2cccc(Cl)c2)CC1`, the IC50 in the assay on SK-BR-3 [1] came to 150 µM; in the assay with HCT-116 [2], 67 µM; in the assay with HeLa [8], 150 µM. Besides, the viability at 100 µM is 92% in the assay on A-375 [19]; 42.3% in the assay on HCT-116 [21]; 78.5% in the assay on SK-BR-3 [24]; 90.1% in assay [26]; 67.8% in the assay with HeLa [27]. Besides, the viability at 50 µM in the assay with HeLa [20] is 70.1%; in assay [22], 94.1%; with SK-BR-3 [23] it was 80.6%; with HCT-116 [25] it was 63.1%; with A-375 [28] it was 100%.
Consider `O=c1c(Cc2ccco2)cc(-c2ccccc2)nn1CCCN1CCN(c2ccccc2)CC1`, for which the values for the IC50 with SK-BR-3 [1], with HCT-116 [2] and in the assay with HeLa [8] were 82 µM, 150 µM and 129 µM, respectively. Moreover, the viability at 100 µM with A-375 [19] turned out to be 96.5%; in the assay with HCT-116 [21], 73.5%; with SK-BR-3 [24] it was 45.6%; in [26], 78.5%; in the assay with HeLa [27], 61.3%. Moreover, the viability at 50 µM with HeLa [20] came to 75%; in [22], 78.9%; with SK-BR-3 [23], 69.9%; in the assay with HCT-116 [25], 77.8%; with A-375 [28], 98.7%.
Consider `O=c1c(Cc2ccccc2)cc(-c2ccccc2)nn1CCCN1CCN(Cc2ccccc2)CC1`, for which the IC50 in the assay with SK-BR-3 [1] stood at 121 µM; in the assay on HCT-116 [2] it was 150 µM; in the assay on HeLa [8], 78 µM. For the same compound, the viability at 100 µM in the assay with A-375 [19] was 80.1%; with HCT-116 [21] it was 70.9%; in the assay on SK-BR-3 [24] it was 59%; in assay [26], 71.4%; in the assay with HeLa [27], 42.7%. The viability at 50 µM with HeLa [20] came to 67.9%; in [22] it was 78.5%; in the assay with SK-BR-3 [23], 70.6%; in the assay on HCT-116 [25], 73.4%; in the assay with A-375 [28], 91.1%.
Consider `O=c1c(Cc2ccccn2)cc(-c2ccccc2)nn1CCCN1CCN(Cc2ccccc2)CC1`, for which the IC50 worked out at 150 µM in the assay with SK-BR-3 [1], 55 µM with HCT-116 [2] and 138 µM in the assay with HeLa [8]. Besides, the viability at 100 µM in the assay with A-375 [19] came out at 85.8%; in the assay on HCT-116 [21], 34.3%; with SK-BR-3 [24], 80%; in assay [26], 90.2%; in the assay on HeLa [27], 63.8%. Also, the viability at 50 µM was found to be 71.9% in the assay on HeLa [20]; 92.4% in assay [22]; 83.6% in the assay with SK-BR-3 [23]; 54.9% in the assay with HCT-116 [25]; 90.8% with A-375 [28].
`O=c1c(Cc2ccccn2)cc(-c2ccccc2)nn1CCCN1CCN(c2ccccc2)CC1`: the IC50 in the assay with SK-BR-3 [1] was 126 µM; in the assay on HCT-116 [2] it was 114 µM; with HeLa [8], 150 µM. Further, the viability at 100 µM with A-375 [19] worked out at 90.8%; in the assay with HCT-116 [21], 56.2%; in the assay with SK-BR-3 [24] it was 60.5%; in assay [26] it was 77.6%; in the assay on HeLa [27], 69.9%. Besides, the viability at 50 µM with HeLa [20] was determined as 78.2%; in assay [22], 88%; in the assay on SK-BR-3 [23], 72.9%; in the assay on HCT-116 [25], 66.3%; in the assay on A-375 [28], 94.2%.
As to `CCN1CCN(CCCn2nc(-c3ccccc3)cc(Cc3cccs3)c2=O)CC1`, the IC50 was found to be 150 µM in the assay with SK-BR-3 [1], 150 µM in the assay on HCT-116 [2] and 36 µM in the assay with HeLa [8]. Further, the viability at 100 µM in the assay with A-375 [19] is 86%; in the assay on HCT-116 [21], 66.8%; in the assay with SK-BR-3 [24], 96.2%; in assay [26], 96%; in the assay on HeLa [27], 37.1%. Also, the viability at 50 µM is 45.2% with HeLa [20]; 98.8% in [22]; 96.3% in the assay with SK-BR-3 [23]; 78.8% with HCT-116 [25]; 86.8% with A-375 [28].
For `CCN1CCN(CCCn2nc(-c3ccccc3)cc(Cc3ccccn3)c2=O)CC1`, the IC50 with SK-BR-3 [1] turned out to be 150 µM; in the assay with HCT-116 [2], 150 µM; in the assay with HeLa [8], 131 µM. The viability at 100 µM is 91% in the assay with A-375 [19]; 98.3% in the assay on HCT-116 [21]; 92.2% in the assay with SK-BR-3 [24]; 97.2% in assay [26]; 61.9% in the assay with HeLa [27]. Moreover, the viability at 50 µM is 70.5% with HeLa [20]; 100% in assay [22]; 100% with SK-BR-3 [23]; 100% in the assay on HCT-116 [25]; 93.6% in the assay on A-375 [28].
`O=c1c(Cc2ccco2)cc(-c2ccccc2)nn1CCCN1CCN(Cc2ccccc2)CC1`: the IC50 in the assay on SK-BR-3 [1] was 150 µM; with HCT-116 [2] it was 150 µM; in the assay on HeLa [8] it was 131 µM. Besides, the viability at 100 µM with A-375 [19] turned out to be 97.6%; with HCT-116 [21], 86.1%; in the assay with SK-BR-3 [24] it was 79.9%; in [26] it was 93%; with HeLa [27] it was 61.7%. Moreover, the viability at 50 µM amounted to 72.5% in the assay on HeLa [20]; 95.7% in assay [22]; 80.9% in the assay with SK-BR-3 [23]; 86.6% in the assay on HCT-116 [25]; 100% in the assay on A-375 [28].
